The values below are quoted from earlier work in patent US20190350879A1, “METHOD OF TREATING PAIN USING RACEMIC MIXTURE OF S-KETAMINE AND R-KETAMINE” (priority 2017, published 2019).

For data set [1] the following is noted: S(+)ketamine compared to R-isomer.
Data set [2] relates to N-Methyl-D-Aspartate receptors. The following applies: S(+)ketamine relative to R-isomer; target not named.

Take `CN[C@]1(c2ccccc2Cl)CCCCC1=O` [S(+)ketamine]: the psychotomimetic side effects result in data set [1] is listed as “greater psychotomimetic side effects”. The “affinity, times greater” value in data set [2] was “approximately four”.
